Holding throughout (assay): inhibition enzyme immunoassay: inhibition of MAb binding to surface bound R-(-)-oxaprotiline-mucin conjugate
Common to all, as to parameters: species or system mouse

One test relates to MAb 1219S59.11. Particulars: for IC50: MAb 1219S59.11, read-out: IC₅₀. As to the method:
(§1) The affinities of the monoclonal antibodies of the invention to R-(-)-oxaprotiline can for example be determined in an inhibition enzyme immunoassay according to Friguet et al. (J. Immunol. Methods 77, 305, 1985) wherein the monoclonal antibody to be tested is preincubated with R-(-)-oxaprotiline and, in a second step, exposed to a solid phase coated with an adsorbable conjugate of R-(-)-oxaprotiline, e.g. a protein conjugate. The fraction of the monoclonal antibody not engaged in immunocomplexes binds to the solid phase and is quantified by a secondary antibody-enzyme conjugate directed against the monoclonal antibody. The affinities are expressed as IC₅₀ (inhibition concentration) values, i.e. the concentration of free antigen causing a 50 % inhibition of antibody binding to the solid phase antigen.
(§2) This can be done, for example, in an inhibition enzyme immunoassay wherein the monoclonal antibodies of the invention are preincubated with any of the soluble compounds listed above and the incubation mixture is then tested in the enzyme immunoassay described above.
(§3) The conjugate solution (0.66 mg/ml) is diluted 1000-fold in coating buffer pH 9.8 (477 mg sodium carbonate, 897 mg sodium hydrogen carbonate, 60 mg sodium azide, 300 ml distilled water) and incubated in the wells of a microtitre plate for 2 days at 4°C. The wells are washed three times with PBS containing Tween 20 (Sigma, 0.1 %). Residual adsorption sites on the plate are saturated by incubation with 100 µl of PBS/Tween 20 for 1 h. 100 µl of a solution to be tested for the presence of antibodies to R-(-)-oxaprotiline are incubated in the wells for 1 h at room temperature. After washing three times with PBS/Tween 20, an alkaline phosphatase conjugated anti-mouse IgG antiserum (Sigma) is added in a 1000-fold dilution for 1 h at 37°C. The microtitre plate is washed five times with PBS/Tween 20, and the enzyme-conjugated bound antiserum developed with an alkaline phosphatase substrate consisting of disodium p-nitrophenylphosphate (1 mg/ml; Sigma) in diethanolamine buffer pH 9.8. The substrate gives a yellow coloration which is measured with a colorimeter (Titertek Multiskan) at a wave length of 405 nm after 60 min.
(§4) The assay is carried out as described in the following.
(§5) The capacity of free R-(-)-oxaprotiline and of a number of compounds which are structurally analogous to R-(-)-oxaprotiline to inhibit the binding of the monoclonal antibodies of the invention to the antigen is determined in an inhibition enzyme immunoassay essentially as described in example 3.2. The MAbs are preincubated with free R-(-)-oxaprotiline and with various structural analogues, respectively, instead of with the test compounds of example 3.2.

The next test has as its system MAb 1219S78.6. To be noted: for IC50: MAb 1219S78.6, read-out: IC₅₀. As to the method:
as §1, §2, §3, §4, §5

For the next test, the system named is MAb 1225S93.2. Particulars: for IC50: MAb 1225S93.2, read-out: IC₅₀. Here is the method:
as §1, §2, §3, §4, §5

For another test, the system named is MAb 1228P63.1. Particulars: for IC50: MAb 1228P63.1, read-out: IC₅₀. Here is the method:
as §1, §2, §3, §4, §5

The test system of the next test is MAb 1226S31.3. To be noted: for IC50: MAb 1226S31.3, read-out: IC₅₀. As to the method: as §1, §2, §3
The capacity of a number of therapeutic drugs some of which are used in combination with antidepressants and of biogenic amines to inhibit the binding of the monoclonal antibodies of the invention to the antigen is determined in a two-step inhibition enzyme immunoassay to establish the selectivity of the monoclonal antibodies to the tested compounds.
as §4, §5

These results are taken from patent EP0392976A1, “Monoclonal antibodies to tetracyclic compounds, processes for their production, and applications” (CIBA-GEIGY AG, priority 1989, dated 1990).

SMILES strings stand for the structures. Counter-ions that a name gives are not always drawn.

As for `CNC[C@@H](O)CC12CCC(c3ccccc31)c1ccccc12` [compound 2, S-(+)-1-(2-hydroxy-3-methylamino-propyl)-dibenzo[b,e]bicyclo-[2.2.2]octadiene-hydrochloride], the rel. affinity with MAb 1219S59.11 is recorded as 462.0; in the test with MAb 1225S93.2, 2.3; with MAb 1228P63.1 it was 6.5; in the test on MAb 1226S31.3 it was “∼0.6”. The IC50 is 134 nM at MAb 1219S59.11; 38.5 nM at MAb 1219S78.6; 0.85 nM at MAb 1225S93.2; 4.9 nM at MAb 1228P63.1; approximately 4 nM at MAb 1226S31.3. The “IC50 relative to reference compound (fold)” value in the test on MAb 1219S78.6 worked out at 126.2.

`CNC[C@H](CC12CCC(c3ccccc31)c1ccccc12)O[C@@H]1O[C@H](C(=O)O)[C@@H](O)[C@H](O)[C@H]1O` [compound 5, S-(+)-1-(2-glucuronyl-3-methylamino-propyl)-dibenzo[b,e]bicyclo-[2.2.2]octadiene]: the rel. affinity in the test with MAb 1219S59.11 is on record as more than 3448; in the test on MAb 1225S93.2, 429.7; in the test with MAb 1228P63.1 it was 562.7; in the test with MAb 1226S31.3, 52.7. For the same compound, the IC50 was more than 1000 nM on MAb 1219S59.11; more than 1000 nM at MAb 1219S78.6; 159 nM on MAb 1225S93.2; 422 nM on MAb 1228P63.1; 353 nM on MAb 1226S31.3. Besides, the “IC50 relative to reference compound (fold)” value in the test with MAb 1219S78.6 was more than 3279.
